The results in this text go back to patent US20250243196A1, “CITRON KINASE INHIBITORS” (The Cleveland Clinic Foundation, priority 2021, published 2025).

By IC50 is commonly meant the point on the concentration scale where inhibition reaches its midpoint.

Citron kinase, sequence (O14578 whole entry): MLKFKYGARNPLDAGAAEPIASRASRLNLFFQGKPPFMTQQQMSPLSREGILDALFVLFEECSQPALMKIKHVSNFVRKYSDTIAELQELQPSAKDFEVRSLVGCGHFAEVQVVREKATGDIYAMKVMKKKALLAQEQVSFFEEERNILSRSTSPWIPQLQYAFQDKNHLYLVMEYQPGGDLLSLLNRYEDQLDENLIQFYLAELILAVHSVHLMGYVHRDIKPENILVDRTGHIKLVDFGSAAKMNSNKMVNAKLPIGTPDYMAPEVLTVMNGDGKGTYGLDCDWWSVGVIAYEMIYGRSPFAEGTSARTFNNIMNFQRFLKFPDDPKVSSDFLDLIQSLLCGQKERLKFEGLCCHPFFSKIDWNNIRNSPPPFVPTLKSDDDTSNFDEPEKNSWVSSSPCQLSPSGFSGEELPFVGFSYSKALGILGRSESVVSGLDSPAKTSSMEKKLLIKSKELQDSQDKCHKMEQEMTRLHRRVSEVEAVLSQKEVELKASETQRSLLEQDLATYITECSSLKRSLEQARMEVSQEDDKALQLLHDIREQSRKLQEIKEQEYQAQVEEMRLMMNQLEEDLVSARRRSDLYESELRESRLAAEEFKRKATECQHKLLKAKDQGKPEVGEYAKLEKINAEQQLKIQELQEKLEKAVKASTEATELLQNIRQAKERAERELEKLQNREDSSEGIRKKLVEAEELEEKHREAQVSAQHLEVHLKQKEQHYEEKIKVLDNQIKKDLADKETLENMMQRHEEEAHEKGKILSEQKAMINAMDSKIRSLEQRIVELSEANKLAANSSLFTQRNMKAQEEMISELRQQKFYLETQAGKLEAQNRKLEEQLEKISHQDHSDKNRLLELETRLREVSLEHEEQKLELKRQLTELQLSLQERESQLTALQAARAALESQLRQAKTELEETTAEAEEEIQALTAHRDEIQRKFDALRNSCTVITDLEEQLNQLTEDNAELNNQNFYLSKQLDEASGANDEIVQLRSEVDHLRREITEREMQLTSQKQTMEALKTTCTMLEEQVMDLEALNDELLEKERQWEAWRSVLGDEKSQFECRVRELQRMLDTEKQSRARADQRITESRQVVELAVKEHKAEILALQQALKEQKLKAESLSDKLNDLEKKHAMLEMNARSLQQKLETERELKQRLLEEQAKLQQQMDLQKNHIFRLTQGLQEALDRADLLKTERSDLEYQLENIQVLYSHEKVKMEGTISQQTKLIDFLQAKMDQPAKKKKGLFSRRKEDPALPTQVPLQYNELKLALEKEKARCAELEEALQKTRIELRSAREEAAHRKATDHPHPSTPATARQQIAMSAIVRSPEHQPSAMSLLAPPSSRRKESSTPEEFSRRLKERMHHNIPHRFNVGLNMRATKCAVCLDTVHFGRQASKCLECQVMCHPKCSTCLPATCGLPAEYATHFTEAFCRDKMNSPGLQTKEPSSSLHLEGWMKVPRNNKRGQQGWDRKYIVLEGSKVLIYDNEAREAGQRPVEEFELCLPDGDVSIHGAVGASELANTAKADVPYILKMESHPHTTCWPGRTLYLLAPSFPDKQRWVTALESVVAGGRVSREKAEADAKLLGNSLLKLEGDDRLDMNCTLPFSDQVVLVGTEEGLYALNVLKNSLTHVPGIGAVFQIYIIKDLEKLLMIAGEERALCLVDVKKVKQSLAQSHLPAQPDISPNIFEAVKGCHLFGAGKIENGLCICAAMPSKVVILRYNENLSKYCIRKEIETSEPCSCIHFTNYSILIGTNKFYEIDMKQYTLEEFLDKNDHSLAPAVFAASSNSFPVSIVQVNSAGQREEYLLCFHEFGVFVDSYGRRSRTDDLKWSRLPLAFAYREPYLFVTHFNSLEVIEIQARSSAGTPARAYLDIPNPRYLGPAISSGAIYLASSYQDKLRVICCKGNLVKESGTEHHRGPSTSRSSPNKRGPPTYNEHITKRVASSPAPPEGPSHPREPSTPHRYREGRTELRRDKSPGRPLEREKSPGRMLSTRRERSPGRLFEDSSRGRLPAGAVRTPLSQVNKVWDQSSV

The experiment addresses Citron kinase (Homo sapiens (Human), UniProt O14578). Nature of the experiment: Radiometric citron kinase assay (Eurofins Cat #16-040KP). The format is biochemical. Conditions: mean of at least two independent assays; read-out: Radiometric CitK IC50. An excerpt: In some embodiments, the step of contacting the sample with the compound comprises administering the compound to a subject (e.g., a subject) suffering from cancer. Methods of determining kinase inhibition are well known in the art. For example, kinase activity of an enzyme and the inhibitory capacity of a test compound can be determined by measuring enzyme specific phosphorylation of a substrate. Commercial assays and kits can be employed. For example, kinase inhibition can be determined using a radiometric binding assay, such as using KinaseProfiler™ technology (Eurofins Discovery). This assay method directly detects product formation without the use of modified substrates or coupling enzymes. Test compounds are incubated with kinase, substrate, required cofactors and radioisotope labeled ATP. Following incubation, unreacted radioactive ATP is removed by washing and incorporation of the radiolabeled phosphate into the kinase substrate is assayed to detect phosphoryltransferase activity, which is directly proportional to the amount of phosphorylated substrate. Inhibition of the kinase by a kinase inhibitor prevents phosphorylation of the substrate and thereby limits the incorporation of radiolabeled phosphate. Such an assay is compatible with a microwell assay format, allowing simultaneous determination of IC50 of multiple compounds.
Compounds were screened for biochemical kinase activity (Eurofins Discovery, France) using one of two assays. […] All values in Table 1 are the mean of at least two independent assays.
For the compound `CC(C)(C)C[C@@H](N)C(=O)Nc1ccc(-c2ccnc3[nH]c(C(F)F)cc23)cc1` [Compound F-143, (2R)-2-Amino-N-[4-[2-(difluoromethyl)-1H-pyrrolo[2,3-b]pyridin-4-yl]phenyl]-4,4-dimethyl-pentanamide], the IC50 worked out at 4 nM.

Consider `CCc1cc(NC(=O)[C@H](N)C(C)(C)C)ccc1-c1ccnc2[nH]ccc12` [Compound F-88, (2R)-2-Amino-N-[3-ethyl-4-(1H-pyrrolo[2,3-b]pyridin-4-yl)phenyl]-3,3-dimethyl-butanamide], for which the IC50 is 57.5 nM.

Turning to `N[C@H](Cc1ccccc1)C(=O)Nc1ccc(-c2ccnc3[nH]ccc23)c(C(F)(F)F)c1` [Compound F-130, (2R)-2-Amino-3-phenyl-N-[4-(1H-pyrrolo[2,3-b]pyridin-4-yl)-3-(trifluoromethyl)phenyl]propanamide], the IC50 was determined as 1420 nM.

Consider `N[C@@H](Cc1ccccc1)C(=O)Nc1ccc(-c2ccnc3[nH]ccc23)c(C(F)(F)F)c1` [Compound F-129, (2S)-2-Amino-3-phenyl-N-[4-(1H-pyrrolo[2,3-b]pyridin-4-yl)-3-(trifluoromethyl)phenyl]propanamide], for which the IC50 was found to be 3000 nM.

On to `CC(C)(C)[C@@H](N)C(=O)Nc1ccc(-c2ccnc3[nH]ccc23)c(F)c1` [Compound F-66, (2R)-2-Amino-N-[3-fluoro-4-(1H-pyrrolo[2,3-b]pyridin-4-yl)phenyl]-3,3-dimethyl-butanamide], for which the IC50 turned out to be 57.7 nM.

Turning to `COc1nc(-c2ccnc3[nH]c(C(F)F)cc23)ccc1NC(=O)[C@H](N)CC(C)(C)C` [Compound F-150, (2R)-2-Amino-N-[6-[2-(difluoromethyl)-1H-pyrrolo[2,3-b]pyridin-4-yl]-2-methoxy-3-pyridyl]-4,4-dimethyl-pentanamide], the IC50 was found to be 9 nM.

With `CC(C)(C)[C@@H](N)C(=O)Nc1ccc(-c2ccnc3[nH]ccc23)cc1F` [Compound F-71, (2R)-2-Amino-N-[2-fluoro-4-(1H-pyrrolo[2,3-b]pyridin-4-yl)phenyl]-3,3-dimethyl-butanamide], the half-inhibitory concentration (IC50) is 64.6 nM.

Turning to `COc1cc(NC(=O)[C@H](N)CC(C)(C)C)cnc1-c1ccnc2[nH]c(C)cc12` [Compound F-172, (2R)-2-Amino-N-[5-methoxy-6-(2-methyl-1H-pyrrolo[2,3-b]pyridin-4-yl)-3-pyridyl]-4,4-dimethyl-pentanamide], the IC50 came out at 3000 nM.

Regarding `Cc1cc2c(-c3ccc(NC(=O)[C@H](N)CC(C)(C)C)cn3)ccnc2[nH]1` [Compound F-145, (2R)-2-Amino-4,4-dimethyl-N-(6-(2-methyl-1H-pyrrolo[2,3-b]pyridin-4-yl)pyridin-3-yl)pentanamide], the IC50 was 26 nM.

With `C[C@H](N)C(=O)Nc1ccc(-c2ccnc3[nH]ccc23)cc1` [Compound F-4, (2S)-2-Amino-N-[4-(1H-pyrrolo[2,3-b]pyridin-4-yl)phenyl]propenamide], the concentration for half-maximal inhibition (IC50) was 3000 nM.

Take `Cc1cc2c(-c3ccc(NC(=O)[C@@H](N)C(C)(C)C)cc3)ccnc2[nH]1` [Compound F-51, (2S)-2-Amino-3,3-dimethyl-N-[4-(2-methyl-1H-pyrrolo[2,3-b]pyridin-4-yl)phenyl]butanamide]: the IC50 turned out to be 366 nM.

On to `Cc1cc2c(-c3ccc(NC(=O)[C@@H](N)C(C)(C)O)cc3C)ccnc2[nH]1` [Compound F-159, (2S)-2-Amino-3-hydroxy-3-methyl-N-[3-methyl-4-(2-methyl-1H-pyrrolo[2,3-b]pyridin-4-yl)phenyl]butanamide], for which the half-inhibitory concentration (IC50) amounted to 852 nM.

As for `CC(C)C[C@@H](NC1CC1)C(=O)Nc1ccc(-c2ccnc3[nH]ccc23)cc1` [Compound F-44, (2R)-2-(Cyclopropylamino)-4-methyl-N-[4-(1H-pyrrolo[2,3-b]pyridin-4-yl)phenyl]pentanamide], the IC50 stood at 555 nM.

On to `CN[C@H](CC(C)C)C(=O)Nc1ccc(-c2ccnc3[nH]c(C)cc23)cc1` [Compound F-94, (2R)-4-Methyl-2-(methylamino)-N-[4-(2-methyl-1H-pyrrolo[2,3-b]pyridin-4-yl)phenyl]pentanamide], for which the IC50 was found to be 43.7 nM.

`COc1nc(-c2ccnc3[nH]c(C(F)(F)F)cc23)ccc1NC(=O)[C@H](N)CC(C)(C)C` [Compound F-149, (2R)-2-Amino-N-[2-methoxy-6-[2-(trifluoromethyl)-1H-pyrrolo[2,3-b]pyridin-4-yl]-3-pyridyl]-4,4-dimethyl-pentanamide]: the IC50 turned out to be 38 nM.

For the compound `Cc1cc2c(-c3ccc(NC(=O)[C@@H](N)CC(C)(C)C)cc3C)ccnc2[nH]1` [Compound F-158, (2S)-2-Amino-4,4-dimethyl-N-[3-methyl-4-(2-methyl-1H-pyrrolo[2,3-b]pyridin-4-yl)phenyl]pentanamide], the IC50 came to 126 nM.

In the case of `Cc1cc2c(-c3csc(NC(=O)[C@H](N)C(C)(C)C)n3)ccnc2[nH]1` [Compound F-112, (2R)-2-Amino-3,3-dimethyl-N-[4-(2-methyl-1H-pyrrolo[2,3-b]pyridin-4-yl)thiazol-2-yl]butanamide], the IC50 is 122 nM.

As for `CC(C)C[C@@H](NCC1CC1)C(=O)Nc1ccc(-c2ccnc3[nH]ccc23)cc1` [Compound F-45, (2R)-2-(Cyclopropymethylamino)-4-methyl-N-[4-[1H-pyrrolo[2,3-b]pyridin-4-yl]phenyl]pentanamide], the IC50 worked out at 683 nM.

For `Cc1cc(NC(=O)[C@H](N)C(C)(C)C)c(F)cc1-c1ccnc2[nH]ccc12` [Compound F-74, (2R)-2-Amino-N-[2-fluoro-5-methyl-4-(1H-pyrrolo[2,3-b]pyridin-4-yl)phenyl]-3,3-dimethyl-butanamide], the IC50 was found to be 1060 nM.

In the case of `CCN[C@H](CC(C)C)C(=O)Nc1ccc(-c2ccnc3[nH]ccc23)cc1` [Compound F-43, (2R)-2-(Ethylamino)-4-methyl-N-[4-(1H-pyrrolo[2,3-b]pyridin-4-yl)phenyl]pentanamide], the IC50 came out at 209 nM.

Regarding `COc1nc(NC(=O)[C@H](N)CC(C)(C)C)ccc1-c1ccnc2[nH]c(C)cc12` [Compound F-153, (2R)-2-Amino-N-[6-methoxy-5-(2-methyl-1H-pyrrolo[2,3-b]pyridin-4-yl)-2-pyridyl]-4,4-dimethyl-pentanamide], the IC50 was found to be 35 nM.

For the compound `CC(C)(C)[C@@H](N)C(=O)Nc1ccc(-c2ccnc3[nH]c(C(F)(F)F)cc23)cc1` [Compound F-56, (2R)-2-Amino-3,3-dimethyl-N-[4-[2-(trifluoromethyl)-1H-pyrrolo[2,3-b]pyridin-4-yl]phenyl]butanamide], the IC50 was 108 nM.

For the compound `Cc1cc(NC(=O)[C@H](N)Cc2ccccc2)ccc1-c1ccnc2[nH]ccc12` [Compound F-127, (2R)-2-Amino-N-[3-methyl-4-(1H-pyrrolo[2,3-b]pyridin-4-yl)phenyl]-3-phenyl-propanamide], the IC50 is 144 nM.

For `Cc1cc(NC(=O)[C@H](N)CC(C)(C)C)ccc1-c1ccnc2[nH]c(C(F)F)cc12` [Compound F-102, (2R)-2-Amino-N-[4-[2-(difluoromethyl)-1H-pyrrolo[2,3-b]pyridin-4-yl]-3-methyl-phenyl]-4,4-dimethyl-pentanamide], the IC50 was 11.7 nM.

On to `CC(C)C[C@@H](NCC(F)(F)F)C(=O)Nc1ccc(-c2ccnc3[nH]ccc23)cc1` [Compound F-47, (2R)-4-Methyl-N-[4-(1H-pyrrolo[2,3-b]pyridin-4-yl)phenyl]-2-(2,2,2-trifluoroethylamino)pentanamide], for which the concentration for half-maximal inhibition (IC50) came out at 3000 nM.

For the compound `N[C@H](Cc1ccccc1)C(=O)Nc1cccc(-c2ccnc3[nH]ccc23)c1` [Compound F-134, (2R)-2-Amino-3-phenyl-N-[3-(1H-pyrrolo[2,3-b]pyridin-4-yl)phenyl]propanamide], the IC50 is 64.1 nM.

Turning to `N[C@H](CCC(F)(F)F)C(=O)Nc1ccc(-c2ccnc3[nH]ccc23)cc1` [Compound F-24, (2R)-2-Amino-5,5,5-trifluoro-N-[4-(1H-pyrrolo[2,3-b]pyridin-4-yl)phenyl]pentanamide], the IC50 was 66.7 nM.

`Cc1cc(NC(=O)[C@H](N)CC(C)C)c(F)cc1-c1ccnc2[nH]ccc12` [Compound F-73, (2R)-2-Amino-N-[2-fluoro-5-methyl-4-(1H-pyrrolo[2,3-b]pyridin-4-yl)phenyl]-4-methyl-pentanamide]: the IC50 came out at 694 nM.

For the compound `Cc1cc2c(-c3nc(NC(=O)[C@H](N)C(C)(C)C)sc3C)ccnc2[nH]1` [Compound F-117, (2R)-2-Amino-3,3-dimethyl-N-[5-methyl-4-(2-methyl-1H-pyrrolo[2,3-b]pyridin-4-yl)thiazol-2-yl]butanamide], the IC50 worked out at 3000 nM.

Regarding `NC(C(=O)Nc1ccc(-c2ccnc3[nH]ccc23)cc1)C1(C(F)(F)F)CC1` (centres unmarked) [Compound F-23, 2-Amino-N-[4-(1H-pyrrolo[2,3-b]pyridin-4-yl)phenyl]-2-[1-(trifluoromethyl)cyclopropyl]acetamide], the IC50 was 172 nM.

On to `CC(O)[C@@H](N)C(=O)Nc1ccc(-c2ccnc3[nH]ccc23)cc1` (stereo partly drawn) [Compound F-30, (2R)-2-Amino-3-hydroxy-N-[4-(1H-pyrrolo[2,3-b]pyridin-4-yl)phenyl]butanamide], for which the concentration for half-maximal inhibition (IC50) amounted to 218 nM.

Turning to `Cc1cc(NC(=O)[C@H](N)CC(C)C)ccc1-c1ccnc2[nH]c(C(F)F)cc12` [Compound F-101, (2R)-2-Amino-N-[4-[2-(difluoromethyl)-1H-pyrrolo[2,3-b]pyridin-4-yl]-3-methyl-phenyl]-4-methyl-pentanamide], the IC50 is 18.1 nM.
